According to patent US20150119352A1, “DINUCELOSIDE POLYPHOSPHATES FOR THE TREATMENT OF PAIN” (GlobalAcorn Ltd., priority 2012, published 2015):

Legend:
[1] = target: T1, native P2X3 receptors, dorsal root ganglia (DRG) neurons (Rattus norvegicus, UniProt P49654); experiment: α,β-meATP-induced currents in cultured dorsal root ganglia neurons; assay type: cell-based; settings: DRG neuron, read-out: inhibition (suppression) of the peak current
T1 construct: Modulation of Native P2X3 Receptors in Rat Cultured Sensory Neurons; endogenous in cells; host or cells: primary cultured rat trigeminal ganglion and dorsal root ganglion neurons
T1 sequence (P49654 1-397): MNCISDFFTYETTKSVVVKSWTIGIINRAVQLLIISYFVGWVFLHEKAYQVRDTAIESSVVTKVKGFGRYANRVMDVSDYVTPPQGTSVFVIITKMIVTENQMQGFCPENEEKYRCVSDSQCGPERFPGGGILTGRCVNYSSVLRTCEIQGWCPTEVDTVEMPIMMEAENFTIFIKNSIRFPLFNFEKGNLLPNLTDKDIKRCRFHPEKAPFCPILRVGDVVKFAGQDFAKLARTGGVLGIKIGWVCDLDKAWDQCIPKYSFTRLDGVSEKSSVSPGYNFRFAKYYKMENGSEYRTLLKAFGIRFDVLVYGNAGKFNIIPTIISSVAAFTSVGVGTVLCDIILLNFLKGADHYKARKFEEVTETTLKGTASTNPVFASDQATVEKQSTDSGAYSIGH
Procedure: (§1) Rat trigeminal (TG), nodose (NG) or dorsal root ganglion (DRG) neurons in culture were prepared as described previously (Sokolova et al., 2001; Simonetti et al., 2006). Neurons were plated on poly-L-lysine (0.2 mg/mL)-coated Petri dishes and cultured for 1 to 2 days under an atmosphere containing 5% CO2. Cells were used within 2 days of plating when they lacked processes. HEK293T cells were prepared as reported previously (Fabbretti et al., 2004; Sokolova et al., 2004) and transfected with rat full-length P2X3 cDNA subcloned into pIRES2-EGFP (Clontech, Mountain View, Calif., USA).
(§2) Trigeminal, nodose, DRG neurons or HEK cells were recorded in the whole-cell configuration while being continuously superfused (at 2 mL/min) with control solution containing (in mM): 152 NaCl, 5 KCl, 1 MgCl2, 2 CaCl2, 10 glucose, and 10 HEPES; pH was adjusted to 7.4 with NaOH and osmolarity was adjusted to 320 mOsM with glucose. […] Responses to selective P2X3 receptor agonist α,β-methylene-ATP (α,β-meATP; resistant to ectoATPase hydrolysis, Sigma-Aldrich) were measured using an EPC-9 amplifier and HEKA Patch Master software (HEKA Electronik, Germany). Cells were voltage-clamped at −70 mV. In most cells, series resistance was compensated by 80%. […]
(§3) The peak amplitudes of the responses were measured using HEKA Patch Master software. […]

[2] = system: native P2X3 receptors, dorsal root ganglia (DRG) neurons; experiment: as above; assay type: cell-based, rat; settings: 1 μM, DRG neurons
Procedure: as §1, §2, §3

Nc1ncnc2c1ncn2[C@@H]1O[C@H](COP(=O)(O)OP(=O)(O)NP(=O)(O)OP(=O)(O)OC[C@H]2O[C@@H](n3cnc4c(N)ncnc43)C(O)C2O)C(O)C1O (stereo in doubt) [AppNHppA]
inhibition at 1 µM [1]: 79.2 ± 5.6%
inhibition of sustained residual component [2]: 18±6%
